Laboratory results from US11685904B2 (priority 2019, dated 2023).
Entries after “also recorded” stand apart in the source; their conditions may differ.

Key:
[1] = system: vaccinia virus expressing the TK.007 HSV-TK variant (IGV-035); set-up: species or system BALB/c mice; conditions: mouse, in vivo
[2] = system: vaccinia virus expressing the TK.007 HSV-TK variant (IGV-077); set-up: species or system mice; conditions: mouse, in vivo

What does the source list for `Nc1nc(O)c2ncn(COC(CO)CO)c2n1` [ganciclovir]?
average lesion size compared to the vehicle (no vaccinia virus) group [1]: comparable to the group treated with vehicle; healing of topical lesions caused by vaccinia virus [1]: healed faster; lesion size compared to the non-treated group [1]: significantly smaller; virus shedding from the tail scarification site [1]: reduced virus shedding; virus replication in tumors (plaque assay) [2]: significantly reduced; also recorded: completely inhibited; virus-mediated GFP expression in tumors (immunohistochemistry) [2]: Low levels; also recorded: no virus-mediated GFP expression was detected
